Paper PMC4699860 (Biophysical Journal, 2015)

Biological target: K-Ras4B1-166-GDP (Homo sapiens, UniProt P01116)
Experiment: Microscale thermophoresis
Format: binding
Conditions: MST; nucleotide state not given; pH 7.0, 0.05% TWEEN-20

## Ac-KEKLNSKPGKKKKKKSKTK-NH2 [kR-4B-28]
  interaction with K-Ras4B1-166 (in words): abolished the interaction
